Source: patent publication US6355799B1, “Substituted benzene compounds, process for their preparation, and herbicidal and defoliant compositions containing them” (ISK Americas Incorporated, priority 1997, dated 2002)

What was measured:
Type in all cases: in vivo
[1] = test system: velvetleaf (Abutilon theophrasti, ABUTH); assay: Post-emerge test, greenhouse herbicide activity screening; conditions: 14 days after application; for Post-emerge Herbicidal Activity ABUTH (phytotoxicity rating): rating scale 0-100; for Post-emerge Herbicidal Activity, phytotoxicity rating ABUTH: rating scale 0-100 (0 no damage, 100 complete death)
In short: (§1)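 Each test used a mechanized track sprayer delivering 187 l/ha of acetone solution at 15–1000 g ai/ha. Post-emerge foliage at 2–3 leaves was treated with added 0.25% v/v non-ionic surfactant and bottom-watered only. Injury was assessed on day 14, where 100 means total kill.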

[2] = test system: common ragweed (Ambrosia artemisizfolia L., AMBEL); assay: as above; conditions: post-emerge, 14 days after application, rating scale 0-100
In short: as §1

[3] = test system: sicklepod (Cassia obtusifolia, CASOB); assay: as above; conditions: 14 days after application; for Post-emerge Herbicidal Activity CASOB (phytotoxicity rating): rating scale 0-100; for Post-emerge Herbicidal Activity, phytotoxicity rating CASOB: rating scale 0-100 (0 no damage, 100 complete death)
In short: as §1

[4] = test system: green foxtail (Setaria viridis, SETVI); assay: as above; conditions: 14 days after application; for Post-emerge Herbicidal Activity SETVI (phytotoxicity rating): rating scale 0-100; for Post-emerge Herbicidal Activity, phytotoxicity rating SETVI: rating scale 0-100 (0 no damage, 100 complete death)
In short: as §1

[5] = test system: large crabgrass (Digitaria sanguinalis, DIGSA); assay: as above; conditions: 14 days after application; for Post-emerge Herbicidal Activity DIGSA (phytotoxicity rating): rating scale 0-100; for Post-emerge Herbicidal Activity, phytotoxicity rating DIGSA: rating scale 0-100 (0 no damage, 100 complete death)
In short: as §1

[6] = test system: redroot pigweed (Amaranthus retroflexus, AMARE); assay: as above; conditions: 14 days after application
In short: as §1

[7] = test system: ivyleaf morningglory (Ipomoea hederacea, IPOHE); assay: as above; conditions: 14 days after application; for Post-emerge Herbicidal Activity IPOHE (phytotoxicity rating): rating scale 0-100; for Post-emerge Herbicidal Activity, phytotoxicity rating IPOHE: rating scale 0-100 (0 no damage, 100 complete death)
In short: as §1

[8] = test system: johnsongrass (Sorghum halepense, SORHA); assay: as above; conditions: rating scale 0-100 (0 no damage, 100 complete death), 14 days after application
In short: as §1

[9] = test system: barnyardgrass (Echinochloa crus-galli, ECHCG); assay: as above; conditions: 14 days after application; for Post-emerge Herbicidal Activity ECHCG (phytotoxicity rating): rating scale 0-100; for Post-emerge Herbicidal Activity, phytotoxicity rating ECHCG: rating scale 0-100 (0 no damage, 100 complete death)
In short: as §1

[10] = test system: lambsquarters (Chenopodium album, CHEAL); assay: as above; conditions: 14 days after application; for Post-emerge Herbicidal Activity CHEAL (phytotoxicity rating): rating scale 0-100; for Post-emerge Herbicidal Activity, phytotoxicity rating CHEAL: rating scale 0-100 (0 no damage, 100 complete death)
In short: as §1

[11] = test system: upland rice (Oryza sp., var. Tebonnet, RICE); assay: Post-emerge test, crop safety; conditions: 14 days after application; for Post-emerge Herbicidal Activity RICE (crop damage rating): rating scale 0-100; for Post-emerge phytotoxicity rating RICE (crop damage): rating scale 0-100 (0 no damage, 100 complete death)
In short: (§2)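 Sandy loam pots; pre-emerge: sown 1 d pre-spray, surface-watered after, then bottom-watered. Post-emerge: sown 8–21 d before, 2–3 leaf stage, + 0.25% v/v NIS, bottom-watered. Acetone, 187 l/ha track spray, 15–1000 g ai/ha. 0–100 injury score, day 14.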

[12] = test system: field corn (Zea mays L., var. Dekalb 535, CORN); assay: Post-emerge test, crop safety; conditions: 14 days after application; for Post-emerge Herbicidal Activity CORN (crop damage rating): rating scale 0-100; for Post-emerge phytotoxicity rating CORN (crop damage): rating scale 0-100 (0 no damage, 100 complete death)
In short: as §2

[13] = test system: redroot pigweed (Amaranthus retroflexus, AMARE); assay: Pre-emerge test, greenhouse herbicide activity screening; conditions: rating scale 0-100, 14 days after application
In short: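 Visual ratings on a 0-100 scale (0 no damage, 100 all plants dead) were taken at 14 days after treatment. Rates of 15-1000 g ai/ha in acetone, 187 l/ha, were sprayed onto soil one day after planting (pre-emerge) or onto 2-3 leaf plants with 0.25% v/v surfactant (post-emerge).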

[14] = test system: velvetleaf (Abutilon theophrasti, ABUTH); assay: as above; conditions: rating scale 0-100, 14 days after application
In short: as §2

[15] = test system: sicklepod (Cassia obtusifolia, CASOB); assay: as above; conditions: rating scale 0-100, 14 days after application
In short: as §2

[16] = test system: green foxtail (Setaria viridis, SETVI); assay: as above; conditions: rating scale 0-100, 14 days after application
In short: as §2

[17] = test system: large crabgrass (Digitaria sanguinalis, DIGSA); assay: as above; conditions: rating scale 0-100, 14 days after application
In short: as §2

[18] = test system: ivyleaf morningglory (Ipomoea hederacea, IPOHE); assay: as above; conditions: rating scale 0-100, 14 days after application
In short: as §2

[19] = test system: johnsongrass (Sorghum halepense, SORHA); assay: as above; conditions: rating scale 0-100, 14 days after application
In short: as §2

[20] = test system: barnyardgrass (Echinochloa crus-galli, ECHCG); assay: as above; conditions: rating scale 0-100, 14 days after application
In short: as §2

[21] = test system: lambsquarters (Chenopodium album, CHEAL); assay: as above; conditions: rating scale 0-100, 14 days after application
In short: as §2

[22] = test system: upland rice (Oryza sp., var. Tebonnet, RICE); assay: Pre-emerge test, crop safety; conditions: rating scale 0-100, 14 days after application
In short: (§3)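 Plants grown in 10 cm pots of sandy loam mix received acetone-dissolved compounds through a moving flat-fan nozzle. Doses ranged from 15 to 1000 g ai/ha. Pre-emerge pots were seeded one day earlier, post-emerge pots 8–21 days earlier. Fourteen days on, each pot was graded 0–100 for damage.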

[23] = test system: field corn (Zea mays L., var. Dekalb 535, CORN); assay: Pre-emerge test, crop safety; conditions: rating scale 0-100, 14 days after application
In short: as §3

## C#CCOC(=O)C(C)(Cl)Cc1c(OC)c(Cl)cc(F)c1-n1c(=O)cc(C(F)(F)F)n(C)c1=O (stereo not drawn) [14-44]
[1]; 63 g ai/ha
  Post-emerge Herbicidal Activity ABUTH (phytotoxicity rating): 100
[1]; 250 g ai/ha
  Post-emerge Herbicidal Activity ABUTH (phytotoxicity rating): 100
[1]; Rate 63 g ai/ha
  Post-emerge Herbicidal Activity, phytotoxicity rating ABUTH: 100
[1]; Rate 250 g ai/ha
  Post-emerge Herbicidal Activity, phytotoxicity rating ABUTH: 100
[2]; 63 g ai/ha
  Post-emerge Herbicidal Activity AMBEL (phytotoxicity rating): 30
[2]; 250 g ai/ha
  Post-emerge Herbicidal Activity AMBEL (phytotoxicity rating): 40
[3]; 63 g ai/ha
  Post-emerge Herbicidal Activity CASOB (phytotoxicity rating): 10
[3]; 250 g ai/ha
  Post-emerge Herbicidal Activity CASOB (phytotoxicity rating): 20
[3]; Rate 63 g ai/ha
  Post-emerge Herbicidal Activity, phytotoxicity rating CASOB: 0
[3]; Rate 250 g ai/ha
  Post-emerge Herbicidal Activity, phytotoxicity rating CASOB: 0
[4]; 63 g ai/ha
  Post-emerge Herbicidal Activity SETVI (phytotoxicity rating): 30
[4]; 250 g ai/ha
  Post-emerge Herbicidal Activity SETVI (phytotoxicity rating): 70
[4]; Rate 63 g ai/ha
  Post-emerge Herbicidal Activity, phytotoxicity rating SETVI: 100
[4]; Rate 250 g ai/ha
  Post-emerge Herbicidal Activity, phytotoxicity rating SETVI: 100
[5]; 63 g ai/ha
  Post-emerge Herbicidal Activity DIGSA (phytotoxicity rating): 40
[5]; 250 g ai/ha
  Post-emerge Herbicidal Activity DIGSA (phytotoxicity rating): 99
[5]; Rate 63 g ai/ha
  Post-emerge Herbicidal Activity, phytotoxicity rating DIGSA: 100
[5]; Rate 250 g ai/ha
  Post-emerge Herbicidal Activity, phytotoxicity rating DIGSA: 100
[6]; 63 g ai/ha, rating scale 0-100 (0 no damage, 100 complete death)
  Post-emerge Herbicidal Activity AMARE (phytotoxicity rating): 100
[6]; 250 g ai/ha, rating scale 0-100
  Post-emerge Herbicidal Activity AMARE (phytotoxicity rating): 100
[6]; Rate 63 g ai/ha, rating scale 0-100 (0 no damage, 100 complete death)
  Post-emerge Herbicidal Activity, phytotoxicity rating AMARE: 100
[6]; Rate 250 g ai/ha, rating scale 0-100 (0 no damage, 100 complete death)
  Post-emerge Herbicidal Activity, phytotoxicity rating AMARE: 100
[7]; 63 g ai/ha
  Post-emerge Herbicidal Activity IPOHE (phytotoxicity rating): 30
[7]; 250 g ai/ha
  Post-emerge Herbicidal Activity IPOHE (phytotoxicity rating): 80
[7]; Rate 63 g ai/ha
  Post-emerge Herbicidal Activity, phytotoxicity rating IPOHE: 50
[7]; Rate 250 g ai/ha
  Post-emerge Herbicidal Activity, phytotoxicity rating IPOHE: 90
[8]; Rate 63 g ai/ha
  Post-emerge Herbicidal Activity, phytotoxicity rating SORHA: 30
[8]; Rate 250 g ai/ha
  Post-emerge Herbicidal Activity, phytotoxicity rating SORHA: 80
[9]; 63 g ai/ha
  Post-emerge Herbicidal Activity ECHCG (phytotoxicity rating): 100
[9]; 250 g ai/ha
  Post-emerge Herbicidal Activity ECHCG (phytotoxicity rating): 100
[9]; Rate 63 g ai/ha
  Post-emerge Herbicidal Activity, phytotoxicity rating ECHCG: 100
[9]; Rate 250 g ai/ha
  Post-emerge Herbicidal Activity, phytotoxicity rating ECHCG: 100
[10]; 63 g ai/ha
  Post-emerge Herbicidal Activity CHEAL (phytotoxicity rating): 70
[10]; 250 g ai/ha
  Post-emerge Herbicidal Activity CHEAL (phytotoxicity rating): 99
[10]; Rate 63 g ai/ha
  Post-emerge Herbicidal Activity, phytotoxicity rating CHEAL: 100
[10]; Rate 250 g ai/ha
  Post-emerge Herbicidal Activity, phytotoxicity rating CHEAL: 100
[11]; 63 g ai/ha
  Post-emerge Herbicidal Activity RICE (crop damage rating): 5
[11]; 250 g ai/ha
  Post-emerge Herbicidal Activity RICE (crop damage rating): 0
[11]; Rate 63 g ai/ha
  Post-emerge phytotoxicity rating RICE (crop damage): 90
[11]; Rate 250 g ai/ha
  Post-emerge phytotoxicity rating RICE (crop damage): 100
[12]; 63 g ai/ha
  Post-emerge Herbicidal Activity CORN (crop damage rating): 99
[12]; 250 g ai/ha
  Post-emerge Herbicidal Activity CORN (crop damage rating): 100
[12]; Rate 63 g ai/ha
  Post-emerge phytotoxicity rating CORN (crop damage): 100
[12]; Rate 250 g ai/ha
  Post-emerge phytotoxicity rating CORN (crop damage): 100
[13]; 63 g ai/ha
  Pre-emerge herbicidal activity, phytotoxicity rating AMARE: 70
[13]; 250 g ai/ha
  Pre-emerge herbicidal activity, phytotoxicity rating AMARE: 100
[14]; 63 g ai/ha
  Pre-emerge herbicidal activity, phytotoxicity rating ABUTH: 80
[14]; 250 g ai/ha
  Pre-emerge herbicidal activity, phytotoxicity rating ABUTH: 100
[15]; 63 g ai/ha
  Pre-emerge herbicidal activity, phytotoxicity rating CASOB: 0
[15]; 250 g ai/ha
  Pre-emerge herbicidal activity, phytotoxicity rating CASOB: 0
[16]; 63 g ai/ha
  Pre-emerge herbicidal activity, phytotoxicity rating SETVI: 0
[16]; 250 g ai/ha
  Pre-emerge herbicidal activity, phytotoxicity rating SETVI: 70
[17]; 63 g ai/ha
  Pre-emerge herbicidal activity, phytotoxicity rating DIGSA: 0
[17]; 250 g ai/ha
  Pre-emerge herbicidal activity, phytotoxicity rating DIGSA: 90
[18]; 63 g ai/ha
  Pre-emerge herbicidal activity, phytotoxicity rating IPOHE: 0
[18]; 250 g ai/ha
  Pre-emerge herbicidal activity, phytotoxicity rating IPOHE: 0
[19]; 63 g ai/ha
  Pre-emerge herbicidal activity, phytotoxicity rating SORHA: 0
[19]; 250 g ai/ha
  Pre-emerge herbicidal activity, phytotoxicity rating SORHA: 0
[20]; 63 g ai/ha
  Pre-emerge herbicidal activity, phytotoxicity rating ECHCG: 0
[20]; 250 g ai/ha
  Pre-emerge herbicidal activity, phytotoxicity rating ECHCG: 50
[21]; 63 g ai/ha
  Pre-emerge herbicidal activity, phytotoxicity rating CHEAL: 70
[21]; 250 g ai/ha
  Pre-emerge herbicidal activity, phytotoxicity rating CHEAL: 100
[22]; 63 g ai/ha
  Pre-emerge phytotoxicity rating, crop damage RICE: 0
[22]; 250 g ai/ha
  Pre-emerge phytotoxicity rating, crop damage RICE: 50
[23]; 63 g ai/ha
  Pre-emerge phytotoxicity rating, crop damage CORN: 0
[23]; 250 g ai/ha
  Pre-emerge phytotoxicity rating, crop damage CORN: 0
